# Columns and labels:
# Format in all cases: in vivo
# Settings in all cases: applied at 1000 g/h, evaluated after 13 days
# [1] = test system: Alopecurus myosuroides (ALOMY); assay: Herbicidal glasshouse test, pre-emergence, ALOMY
# Setaria faberi (SETFA) [2] = assay: Herbicidal glasshouse test, pre-emergence, SETFA
# [3] = test system: Echinochloa crus-galli (ECHCG); assay: Herbicidal glasshouse test, pre-emergence, ECHCG
# Summary of the method: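 Echinochloa crus-galli seeds were sown in standard soil in pots and grown for one day in a glasshouse at 24/16° C. day/night, 14 hours light and 65% humidity. Pre-emergence spraying used an aqueous solution of the active ingredient in acetone/water (50:50) with 0.5% Tween 20. Damage was scored after 13 days on a five point scale.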
# Solanum nigrum (SOLNI) [4] = assay: Herbicidal glasshouse test, pre-emergence, SOLNI
# Summary of the method: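 Seeds of Solanum nigrum were sown in pots of standard soil and kept one day in a glasshouse at 24/16° C. day/night, 14 hours light and 65% humidity. For the pre-emergence treatment they were then sprayed with an aqueous solution of the active ingredient formulated in acetone/water (50:50) containing 0.5% Tween 20. Plant damage was rated after 13 days.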
# [5] = test system: Amaranthus retoflexus (AMARE); assay: Herbicidal glasshouse test, pre-emergence, AMARE
# Summary of the method: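 Amaranthus retoflexus seeds were sown in pots of standard soil and kept one day in a glasshouse at 24/16° C. (day/night), 14 hours light and 65% humidity. They were then sprayed pre-emergence with the active ingredient in acetone/water (50:50) containing 0.5% Tween 20. Plants grew under the same conditions, watered twice daily, and percentage damage was scored after 13 days.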
# [6] = test system: Ipomoea hederacea (IPOHE); assay: Herbicidal glasshouse test, pre-emergence, IPOHE
# [7] = test system: Alopecurus myosuroides (ALOMY); assay: Herbicidal glasshouse test, post-emergence, ALOMY
# Setaria faberi (SETFA) [8] = assay: Herbicidal glasshouse test, post-emergence, SETFA
# Summary of the method: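 Setaria faberi seeds were sown in standard soil in pots and grown for 8 days in a glasshouse at 24/16° C. day/night, 14 hours light and 65% humidity. The seedlings were then sprayed post-emergence with the active ingredient in acetone/water (50:50) containing 0.5% Tween 20. Afterwards they were kept under the same conditions, watered twice daily, and scored for percentage damage on a five point scale.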
# [9] = test system: Echinochloa crus-galli (ECHCG); assay: Herbicidal glasshouse test, post-emergence, ECHCG
# Summary of the method: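 Echinochloa crus-galli (ECHCG) seeds were sown in standard soil in pots and grown for 8 days in a glasshouse at 24/16° C. day/night, 14 hours light and 65% humidity. The young plants were then sprayed post-emergence with the active ingredient in acetone / water (50:50) containing 0.5% Tween 20. Damage was scored after 13 days.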
# Solanum nigrum (SOLNI) [10] = assay: Herbicidal glasshouse test, post-emergence, SOLNI
# [11] = test system: Amaranthus retoflexus (AMARE); assay: Herbicidal glasshouse test, post-emergence, AMARE
# Summary of the method: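 Amaranthus retoflexus (AMARE) seeds were sown in pots of standard soil and grown in a glasshouse at 24/16° C. day/night, 14 hours light and 65% humidity for 8 days. The plants were then sprayed post-emergence with an aqueous solution of the active ingredient in acetone/water (50:50) with 0.5% Tween 20. Damage was scored after 13 days.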
# [12] = test system: Ipomoea hederacea (IPOHE); assay: Herbicidal glasshouse test, post-emergence, IPOHE
compound,measurement,setting,value
CCOc1cccc(-n2c(=O)c(C(=O)Nc3nnnn3C)nn(C)c2=O)c1 [Compound 1.034],"PRE Application ALOMY, percentage damage (five point scale)",[1],5 (5=80-100%)
same,"PRE Application SETFA, percentage damage (five point scale)",Setaria faberi (SETFA) [2],5 (5=80-100%)
same,"PRE Application ECHCG, percentage damage (five point scale)",[3],5 (5=80-100%)
same,"PRE Application SOLNI, percentage damage (five point scale)",Solanum nigrum (SOLNI) [4],5 (5=80-100%)
same,"PRE Application AMARE, percentage damage (five point scale)",[5],5 (5=80-100%)
same,"PRE Application IPOHE, percentage damage (five point scale)",[6],5 (5=80-100%)
same,"POST Application ALOMY, percentage damage (five point scale)",[7],5 (5=80-100%)
same,"POST Application SETFA, percentage damage (five point scale)",Setaria faberi (SETFA) [8],5 (5=80-100%)
same,"POST Application ECHCG, percentage damage (five point scale)",[9],5 (5=80-100%)
same,"POST Application SOLNI, percentage damage (five point scale)",Solanum nigrum (SOLNI) [10],5 (5=80-100%)
same,"POST Application AMARE, percentage damage (five point scale)",[11],5 (5=80-100%)
same,"POST Application IPOHE, percentage damage (five point scale)",[12],5 (5=80-100%)
Cn1nnnc1NC(=O)c1nn(C)c(=O)n(Cc2ccccc2C(F)(F)F)c1=O [Compound 1.062],"PRE Application ALOMY, percentage damage (five point scale)",[1],5 (5=80-100%)
same,"PRE Application SETFA, percentage damage (five point scale)",Setaria faberi (SETFA) [2],5 (5=80-100%)
same,"PRE Application ECHCG, percentage damage (five point scale)",[3],5 (5=80-100%)
same,"PRE Application SOLNI, percentage damage (five point scale)",Solanum nigrum (SOLNI) [4],5 (5=80-100%)
same,"PRE Application AMARE, percentage damage (five point scale)",[5],5 (5=80-100%)
same,"PRE Application IPOHE, percentage damage (five point scale)",[6],5 (5=80-100%)
same,"POST Application ALOMY, percentage damage (five point scale)",[7],5 (5=80-100%)
same,"POST Application SETFA, percentage damage (five point scale)",Setaria faberi (SETFA) [8],5 (5=80-100%)
same,"POST Application ECHCG, percentage damage (five point scale)",[9],5 (5=80-100%)
same,"POST Application SOLNI, percentage damage (five point scale)",Solanum nigrum (SOLNI) [10],5 (5=80-100%)
same,"POST Application AMARE, percentage damage (five point scale)",[11],5 (5=80-100%)
same,"POST Application IPOHE, percentage damage (five point scale)",[12],5 (5=80-100%)
Cn1nnnc1NC(=O)c1nn(C)c(=O)n(Cc2ccc([N+](=O)[O-])cc2)c1=O [Compound 1.071],"PRE Application ALOMY, percentage damage (five point scale)",[1],5 (5=80-100%)
same,"PRE Application SETFA, percentage damage (five point scale)",Setaria faberi (SETFA) [2],2 (2=20-39%)
same,"PRE Application ECHCG, percentage damage (five point scale)",[3],5 (5=80-100%)
same,"PRE Application SOLNI, percentage damage (five point scale)",Solanum nigrum (SOLNI) [4],5 (5=80-100%)
same,"PRE Application AMARE, percentage damage (five point scale)",[5],5 (5=80-100%)
same,"PRE Application IPOHE, percentage damage (five point scale)",[6],5 (5=80-100%)
same,"POST Application ALOMY, percentage damage (five point scale)",[7],4 (4=60-79%)
same,"POST Application SETFA, percentage damage (five point scale)",Setaria faberi (SETFA) [8],1 (1=0-19%)
same,"POST Application ECHCG, percentage damage (five point scale)",[9],4 (4=60-79%)
same,"POST Application SOLNI, percentage damage (five point scale)",Solanum nigrum (SOLNI) [10],5 (5=80-100%)
same,"POST Application AMARE, percentage damage (five point scale)",[11],5 (5=80-100%)
same,"POST Application IPOHE, percentage damage (five point scale)",[12],2 (2=20-39%)
Cc1cc(C)cc(-n2c(=O)c(C(=O)Nc3nnnn3C)nn(C)c2=O)c1 [Compound 1.038],"PRE Application ALOMY, percentage damage (five point scale)",[1],5 (5=80-100%)
same,"PRE Application SETFA, percentage damage (five point scale)",Setaria faberi (SETFA) [2],5 (5=80-100%)
same,"PRE Application ECHCG, percentage damage (five point scale)",[3],5 (5=80-100%)
same,"PRE Application SOLNI, percentage damage (five point scale)",Solanum nigrum (SOLNI) [4],5 (5=80-100%)
same,"PRE Application AMARE, percentage damage (five point scale)",[5],5 (5=80-100%)
same,"PRE Application IPOHE, percentage damage (five point scale)",[6],5 (5=80-100%)
same,"POST Application ALOMY, percentage damage (five point scale)",[7],5 (5=80-100%)
same,"POST Application SETFA, percentage damage (five point scale)",Setaria faberi (SETFA) [8],5 (5=80-100%)
same,"POST Application ECHCG, percentage damage (five point scale)",[9],5 (5=80-100%)
same,"POST Application SOLNI, percentage damage (five point scale)",Solanum nigrum (SOLNI) [10],5 (5=80-100%)
same,"POST Application AMARE, percentage damage (five point scale)",[11],5 (5=80-100%)
same,"POST Application IPOHE, percentage damage (five point scale)",[12],5 (5=80-100%)
Cn1nnnc1NC(=O)c1nn(C)c(=O)n(CC2CCCCC2)c1=O [Compound 1.096],"PRE Application ALOMY, percentage damage (five point scale)",[1],5 (5=80-100%)
same,"PRE Application SETFA, percentage damage (five point scale)",Setaria faberi (SETFA) [2],4 (4=60-79%)
same,"PRE Application ECHCG, percentage damage (five point scale)",[3],5 (5=80-100%)
same,"PRE Application SOLNI, percentage damage (five point scale)",Solanum nigrum (SOLNI) [4],5 (5=80-100%)
same,"PRE Application AMARE, percentage damage (five point scale)",[5],5 (5=80-100%)
same,"PRE Application IPOHE, percentage damage (five point scale)",[6],5 (5=80-100%)
same,"POST Application ALOMY, percentage damage (five point scale)",[7],4 (4=60-79%)
same,"POST Application SETFA, percentage damage (five point scale)",Setaria faberi (SETFA) [8],5 (5=80-100%)
same,"POST Application ECHCG, percentage damage (five point scale)",[9],5 (5=80-100%)
same,"POST Application SOLNI, percentage damage (five point scale)",Solanum nigrum (SOLNI) [10],5 (5=80-100%)
same,"POST Application AMARE, percentage damage (five point scale)",[11],5 (5=80-100%)
same,"POST Application IPOHE, percentage damage (five point scale)",[12],5 (5=80-100%)

# Source: patent publication US20160009693A1, “HERBICIDAL COMPOUNDS” (SYNGENTA LIMITED, priority 2013, published 2016)
